{
  "source": "patent US20100266503A1",
  "about": "“Breast Cancer Methods, Medicaments and Agents” (priority 2007, published 2010)",
  "key": {"[1]": {"test_system": "MCF-7, T47D, ZR-75-1, MDA-MB-231 and Cal-51 breast cancer cell lines", "assay": "Sulphorhodamine B Assay (SRB) of GSI1 on breast cancer cell lines", "assay_type": "cell-based", "description": "Graphs illustrating the effects of GSI1, at different concentrations, on proliferation in five breast cancer cell lines: (A) MCF-7 cells, (B) T47D cells, (C) ZR-75-1 cells, (D) MDA-MB-231 cells and (E) Cal- 51 cells.\nThe effect of GSI1 on cell proliferation was investigated further in a range of breast cancer cell lines, including both oestrogen receptor positive and negative cell lines, using the Sulphorhodamine B Assay (SRB) to measure cell numbers as illustrated in FIG. 7. […] 6,000 cells were plated in 6 replicates and allowed to adhere overnight. The media was replaced the following day with media containing GSI1 at different concentrations (100 nM, 250 nM, 500 nM, 750 nM, 1 μM, 2 μM, 5 μM, and 10 μM) apart from the control which was media+dimethyl sulphoxide (the solvent for GSI1 at a concentration equal to the highest in the GSI1 treated wells). One plate of cells was subjected to the Sulphorhodamine B Assay (SRB), which […] is an accepted measure of cell numbers, on this day, day 0. Briefly, cells were fixed by adding 100 μl/well of ice-cold 40% Trichloroacetic acid to each well and leaving for 60 mins. Plates were washed 5 times in running tap water (allowing water to fill wells indirectly) and stained with 100 μl/well SRB reagent (0.4% w/v SRB [Sigma-s-9012] in 1% Acetic acid) for 30 mins. Plates were washed 5 times in 1% acetic acid and left overnight to dry before solubilizing with 100 μl/well 10 mM Tris-base. Plates were subject to shaking for 30 mins and absorbance read at 492 nm. The remaining plates were then assayed at 2-day intervals up to day 10. […] Thus, it was evident that irrespective of the cell characteristics that 1 μM and higher concentrations were an effective killing dose and doses as low as 250 nM were inhibitory to cell proliferation."}, "[2]": {"test_system": "notch intracellular domain in MCF-7 cells", "assay": "Staining for notch intracellular domain expression (surrogate marker for GS activity)", "assay_type": "cell-based", "details": "48 hours; Gefitinib 15 μM, U0126 10 μM, PD98059 10 μM", "description": "(A) GS activity as measured by a fluorescent assay in MCF7 breast cancer cell lines and MCF10A normal cell lines, with and without treatment with the ERK1/2 inhibitor U0126. (B) Sections of MCF7 breast cancer cell lines stained for notch intracellular domain expression (as a surrogate marker for GS activity). Shown are sections of cells untreated (NO), and cells treated with oestrogen (E2), faslodex (FAS), Gefitinib (Gef), GSI1, and the ERK1/2 inhibitors U0126 (U) and. PD98059 (PD). (C) Sections of MCF10A normal cell lines stained for notch intracellular domain expression. Shown are sections of cells untreated (NO), and cells treated with Gefitinib (Gef) and PD98059 (PD).\nCancer and normal cell lines were treated with oestrogen (E2), faslodex (FAS), Gefitinib (Gef 15 μM), GSI1, and the ERK1/2 inhibitors U0126 (U) (10 μM) and PD98059 (PD) (10 μM) for 48 hours and a fluorescent assay performed to measure GS activity. The figures show relative fluorescence therefore the amount of fluorescence in the treated cells relative to the untreated minus background (these figures are corrected for background)."}},
  "note": "Non-standard residues stand in square brackets, D forms with d. Residues, ends and D or L forms follow the SMILES beside them. *: point of attachment. Nle = CCCC[C@H](N)C(=O)O; Cbz = O=C(OCc1ccccc1)*",
  "data": [
    {"smiles": "CCCC[C@@H](C=O)NC(=O)[C@H](CC(C)C)NC(=O)[C@H](CC(C)C)NC(=O)OCc1ccccc1", "note": "[GSI1, Z-Leu-Leu-Nle-CHO] (Cbz-Leu-Leu-[Nle]-aldehyde)", "values": [
      {"measurement": "effect of the 1 μM treatment on cell numbers", "setting": "[1]; 1 μM, each cell line, assayed up to day 10", "result": "greatly reduced cell numbers"},
      {"measurement": "effective killing dose", "setting": "[1]; irrespective of cell characteristics, up to day 10", "result": "≥ 1", "unit": "µM"},
      {"measurement": "concentration effective at killing / lethal to breast cancer cell lines", "setting": "[1]; summary statement", "result": 1, "unit": "µM"},
      {"measurement": "lowest dose inhibitory to cell proliferation", "setting": "[1]; up to day 10", "result": 250, "unit": "nM"},
      {"measurement": "notch intracellular domain expression localized to the nucleus compared to untreated cells", "setting": "[2]", "result": "appear to increase notch intracellular domain expression localized to the nucleus"}
    ]}
  ]
}
